Results on four molecules are retold here after BindingDB's records for doi:10.1021/jm2017144 (Universidad De Granada, 2012).

The target of the assay is Superoxide dismutase [Cu-Zn], SOD1 (Homo sapiens) (UniProt P00441). Description: Inhibition of human erythrocyte Cu-Zn SOD by NBT reduction assay.
Superoxide dismutase [Cu-Zn], SOD1 (Homo sapiens), sequence (P00441 whole entry, looked up): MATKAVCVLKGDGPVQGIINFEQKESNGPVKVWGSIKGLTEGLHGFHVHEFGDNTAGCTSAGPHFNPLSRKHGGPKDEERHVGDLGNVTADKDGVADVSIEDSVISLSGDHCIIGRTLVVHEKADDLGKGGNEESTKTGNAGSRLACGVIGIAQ
The term IC50 denotes the concentration that inhibits the measured activity by half. A higher IC50 goes with weaker potency in that assay. With `c1c2n[nH]c1CNCCN1CCNCc3cc(n[nH]3)CNCCN(CCNC2)CCNCc2cc([nH]n2)CNCC1`, half-maximal inhibition (IC50) required 274 µM.

Molecule `Cn1nc2cc1CNCCNCCNCc1cc(n(C)n1)CNCCNCCNC2` came in with an IC50 of 96.6 µM.

In turn, `c1ccc(Cn2nc3cc2CNCCNCCNCc2cc(n(Cc4ccccc4)n2)CNCCNCCNC3)cc1` showed an IC50 of 155 µM.

On to `CCCCCCCCN1CCNCc2cc([nH]n2)CNCCN(CCCCCCCC)CCNCc2cc(n[nH]2)CNCC1`, for which half-maximal inhibition (IC50) required 89.2 µM.
